The record followed here is the Deep4Chem optical property database.

Each structure is given as a SMILES string. “And” between values parts separate entries of the source, which are not always exact repeats. Equal values may be shown once.

The data set in a line: solvent given as SMILES.
Setting [1] is: in c1ccc2c(c1)c1ccccc1n2-c1ccc(-c2ccc(-n3c4ccccc4c4ccccc43)cc2)cc1.

With `Cc1cn2cc(-c3ccccc3)[n-][n+]2c1`, under “in ClCCl”, the emission maximum came out at 422 nm.

Compound `CC(=O)Nc1ccc(/C=C2\OC(=O)c3cc(N)ccc32)cc1` had an emission maximum (in CC#N) of 455.79 nm; an emission maximum (in CC(C)=O) of 453.31 nm; an emission maximum (in CC(C)CO) of 482.86 nm; an emission maximum (in CC(C)O) of 483.09 nm; an emission maximum (in CCCO) of 484.26 nm; an emission maximum (in CCO) of 485.91 nm. In addition, the emission maximum was 443.66 nm (in CCOC(C)=O), 429.92 nm (in CCOCC) and 490.2 nm (in CO).

As for `c1ccc(-n2c(-c3ccccc3-n3c4ccccc4c4ccccc43)nc3ccccc32)cc1`, for the setting “in C1CCOC1”, the emission maximum is 396 nm.

Regarding `C[NH+](C)c1c2ccccc2cc2ccccc12`, for the setting “in O”, the emission maximum turned out to be 400 nm.

As for `CN(C)c1ccc(/C=C/c2nc3c(ccc4ccccc43)s2)cc1`, the emission maximum by setting is: (in C1CCCCC1) 468 nm; (in CC#N) 524 nm.

Regarding `ClP1(Cl)=NP(Cl)(Cl)=NP(Cl)(Oc2ccc3ccc4cccc5ccc2c3c45)=N1` (stereo unspecified), the emission maximum (in ClCCl) is 417 nm.

`CCCC1(CCC)c2cc(-c3cccc(C)c3)ccc2-c2ccc(-c3cccc(C)c3)cc21`: the emission maximum (in C1CCCCC1) was 363 nm.

For `C(S/C=C/c1ccc(-c2ccc(/C=C/SC=C3CCCCCCC3)cc2)cc1)=C1CCCCCCC1`, for the setting “in ClCCl”, the emission maximum turned out to be 437 nm.

`N#Cc1c(C#N)c2cc(Cl)ccc2c2ccc(Cl)cc12` displayed an emission maximum (in ClC(Cl)Cl) of 388 nm.

In the case of `O=c1oc2ccc3ccccc3c2nc1-c1ccc(Cl)cc1`, the emission maximum (in c1ccccc1) is 465 nm.

`C(#Cc1cc(C#Cc2ccccc2)c(C#Cc2ccccc2)c(C#Cc2ccccc2)c1C#Cc1ccccc1)c1ccccc1` gave an emission maximum (in ClCCl) of 424 nm.

In turn, `c1ccc(-n2c3ccccc3c3cc(-n4ccc5cc(-c6ccc7c(c6)C(c6ccccc6)(c6ccccc6)c6ccccc6-7)ccc54)ccc32)cc1` had an emission maximum (in ClCCl) of 378 nm.

Take `N#Cc1cc(-c2cc(C#N)c(-n3c4ccccc4c4ccccc43)cc2-n2c3ccccc3c3ccccc32)c(-n2c3ccccc3c3ccccc32)cc1-n1c2ccccc2c2ccccc21`: the emission maximum (in Cc1ccccc1) is reported as 453 nm.

`c1ccc(-c2nc(-c3ccc(N4c5ccccc5Oc5ccccc54)cc3)nn2-c2ccc(N3c4ccccc4Oc4ccccc43)cc2)nc1`: for the setting “in ClCCl”, the emission maximum was 490 nm.

With `Cc1nc2cccc(-c3nc4ccccc4o3)c2c(=O)[nH]1`, the emission maximum (in CN(C)C=O) is listed as 398 nm.

Turning to `CN(C)c1ccc(-c2nc3cccnc3[nH]2)cc1`, the emission maximum (in C1CCCCC1) was found to be 359 nm and the emission maximum (in CC#N) was 408 nm.

Take `CC(C)(C)c1ccc2c(c1)c1cc(C(C)(C)C)ccc1n2-c1ccc2c(c1)C(=O)c1ccc(-n3c4ccc(C(C)(C)C)cc4c4cc(C(C)(C)C)ccc43)cc1C2=O`: the emission maximum reads like this: (in Cc1ccccc1) 602 nm; under setting [1], 575 nm.

Compound `CN(C)c1ccc2nc(-c3ccccc3)c(=O)oc2c1` returned an emission maximum (in c1ccccc1) of 500 nm.

`CCCCCN(c1ccccc1)c1ccc2c(c1)C(CC)(CC)c1cc(/C=C/c3ccc(/C=C(\C#N)C(=O)O)s3)ccc1-2` yielded an emission maximum (in C1CCOC1) of 597 nm; an emission maximum (in C1COCCO1) of 618 nm; an emission maximum (in CC#N) of 496 nm; an emission maximum (in CC(C)=O) of 574 nm; an emission maximum (in CCOC(C)=O) of 580 nm; an emission maximum (in CN(C)C=O) of 504 nm. Further, the emission maximum amounted to 517 nm (in CS(C)=O) and 584 nm (in ClCCl).

`Cc1c(C)c(B(c2c(C)c(C)c(N3c4ccccc4Oc4ccccc43)c(C)c2C)c2c(C)c(C)c(N3c4ccccc4Oc4ccccc43)c(C)c2C)c(C)c(C)c1C#N` gave an emission maximum (in c1ccc([Si](c2ccccc2)(c2ccc(-n3c4ccccc4c4ccccc43)cc2)c2ccc(-n3c4ccccc4c4ccccc43)cc2)cc1) of 517 nm.

With `Cc1ccc(-c2cc(-c3ccc(N(C)C)cc3)c3c(N)nc(N4CCCC4)c(C#N)c3n2)cc1`, the emission maximum was 514 nm (in CC#N); 511 nm (in CC(C)=O); 506 nm (in CC(C)O); 517 nm (in CO); 496 nm (in ClC(Cl)Cl); 503 nm (in ClCCl). Where the note is “in c1ccccc1”, this compound had an emission maximum of 500 nm.

Regarding `Oc1ccccc1-c1nc2c3ccccc3c3ccccc3c2n1-c1ccccc1`, under “in Cc1ccccc1”, the emission maximum was 369 nm.

The compound `COC(=O)c1ccc(/C=C2\C=C(c3ccc([N+](=O)[O-])cc3)OC2=O)cc1` had an emission maximum (in C1COCCO1) of 493 nm.

As for `C(#Cc1ccc(-n2c3ccccc3c3ccccc32)cc1)c1ccccc1`, the emission maximum reads like this: (in CC#N) 443 nm; (in CO) 401 nm; (in Cc1ccccc1) 364 nm; (in ClC(Cl)Cl) 379 nm; (in ClCCl) 390 nm.

For `CC(NC(=O)OC(C)(C)C)C(=O)OCc1ccc2c3cccc4cccc(c5cccc1c52)c43` (stereo unspecified), the emission maximum (in CCO) is 443 nm.

As for `O=C1/C(=C\c2ccc(N(c3ccccc3)c3ccccc3)cc2)S(=O)(=O)c2ccccc21`, the emission maximum stood at 630 nm (in C1CCOC1); 600 nm (in C1COCCO1); 518 nm (in CC#N); 540 nm (in CC(C)=O); 617 nm (in CCOC(C)=O); 520 nm (in CN(C)C=O). In addition, the emission maximum is 597 nm (in CO); 553 nm (in CS(C)=O); 587 nm (in Cc1ccccc1); 626 nm (in ClC(Cl)Cl); 631 nm (in ClCCl).

Regarding `c1ccc(-c2cn3ccc[n+]3[n-]2)cc1`, the emission maximum (in ClCCl) amounted to 419 nm.

As for `CN(C)c1ccc2nc(-c3ccc(C(=O)O)cc3)sc2c1`, the emission maximum stood at 426 nm (in C1CCCCC1); 558 nm (in CC#N); 493 nm (in CC(C)O); 512 nm (in CO); 568 nm (in CS(C)=O); 509 nm (in ClC(Cl)Cl). The emission maximum (in c1ccccc1) was 483 nm and 486 nm.

`N#Cc1ccc(/C=C2\C=C(c3ccccc3)OC2=O)cc1` gave an emission maximum (in C1COCCO1) of 494 nm.

Take `CC(C)(C)c1ccc2c(c1)c1cc(C(C)(C)C)ccc1n2-c1ccc(N(c2ccc(-c3ccc(-c4ccc(-c5ccc(N(c6ccc(-n7c8ccc(C(C)(C)C)cc8c8cc(C(C)(C)C)ccc87)cc6)c6ccc(-n7c8ccc(C(C)(C)C)cc8c8cc(C(C)(C)C)ccc87)cc6)cc5)s4)s3)cc2)c2ccc(-n3c4ccc(C(C)(C)C)cc4c4cc(C(C)(C)C)ccc43)cc2)cc1`: under “in ClCCl”, the emission maximum is 494 nm.

In turn, `CCCCCCc1ccsc1-c1cc2c3cc(-c4sccc4CCCCCC)c4nc(C(F)(F)C(F)(F)C(F)(F)F)nc5c(-c6sccc6CCCCCC)cc(c6cc(-c7sccc7CCCCCC)c7nc(C(F)(F)C(F)(F)C(F)(F)F)nc1c7c26)c3c45` returned an emission maximum (in C1CCOC1) of 627 nm.

`CC(C)(C)NC(=O)c1ccc(C(=O)NC(C)(C)C)c2c1c1c3ccccc3c3ccccc3c1c1c3ccccc3c3ccccc3c21`: the emission maximum (in ClCCl) is on record as 476 nm.

For the compound `Cc1ccccc1C`, the emission maximum (in C1CCCCC1) was determined as 291.38 nm.

In turn, `C(=C\c1c2ccccc2cc2ccccc12)/c1c2ccccc2cc2ccccc12` displayed an emission maximum (in C1CCOC1) of 650 nm.

As to `O=c1cc(C(F)(F)F)c2cc3c4c(c2o1)CCCN4CCC3`, the emission maximum was 455 nm (in C1CCCCC1); 521 nm (in CC#N); 531 nm (in CCO); 501 nm (in CCOC(C)=O); 546 nm (in OCC(O)CO).

`CCCCC(CC)CN1C(=O)c2cc(Oc3ccc(C(C)(C)C)cc3)c3c4c(Cl)cc5c6c(cc(Cl)c(c7c(Oc8ccc(C(C)(C)C)cc8)cc(c2c37)C1=O)c64)C(=O)N(c1c(C(C)C)cccc1C(C)C)C5=O` (stereo unspecified) came in with an emission maximum (in Cc1ccccc1) of 606 nm.

On to `COC(=O)c1ccc2ccc3cccc4ccc1c2c34`, for which the emission maximum (in C1CCOC1) stood at 388 nm; the emission maximum (in CC#N) was determined as 389 nm; the emission maximum (in CCCCCC) was found to be 385 nm; the emission maximum (in CCO) came to 391 nm; the emission maximum (in CN(C)C=O) was found to be 391 nm; the emission maximum (in CO) is on record as 392 nm. Further, the emission maximum by setting is: (in Cc1ccccc1) 390 nm; (in ClCCl) 390 nm.

As for `F[B-]1(F)n2c(Oc3ccccc3)c(Cl)c3c2C(=C2C(Br)=C(Cl)C(Oc4ccccc4)=[N+]21)Oc1ccccc1-3`, where the note is “in ClCCl”, the emission maximum is 492 nm.

`CC1(C)c2ccccc2N(c2ccccc2)c2ccc(-c3ccc(-c4ccc5c(c4)C(C)(C)c4ccccc4N5c4ccccc4)c4nsnc34)cc21`: the emission maximum turned out to be 596.02 nm (in Cc1ccccc1) and 588 nm under setting [1].

Consider `c1ccc(-c2nc(-c3ccccc3)nc(-c3ccc(-n4c5ccccc5c5ccc6c7ccccc7n(-c7ccccc7)c6c54)cc3)n2)cc1`, for which the emission maximum is, setting by setting: (in Cc1ccccc1) 459 nm; (in O=P(c1ccccc1)(c1ccccc1)c1ccc2oc3ccc(P(=O)(c4ccccc4)c4ccccc4)cc3c2c1) 477 nm.

`c1cc2ccc3[se]c4ccc5cccc6c(c1)c2c3c4c56` yielded an emission maximum (in ClC(Cl)Cl) of 424 nm.

Regarding `CCCCc1ccc(-n2c3c(c4c2c2c(n4-c4ccc(CCCC)cc4)-c4ccc(C(F)(F)F)cc4NB2c2ccccc2)B(c2ccccc2)Nc2cc(C(F)(F)F)ccc2-3)cc1`, the emission maximum (in Cc1ccccc1) was 413 nm.

For `CCN(CC)c1ccc2c(-c3ccc(S(=O)(=O)O)cc3S(=O)(=O)[O-])c3ccc(=[N+](CC)CC)cc-3oc2c1`, the emission maximum runs as follows: (in CC#N) 575 nm; (in CCO) 581 nm; (in CN(C)C=O) 576 nm; (in O) 591 nm.

In the case of `CCCCC1(c2ccccc2)Nc2c(-c3ccc(N(C)c4ccccc4)cc3)ccc(-c3ccc(N(C)c4ccccc4)cc3)c2N=C1c1ccccc1` (stereo unspecified), the emission maximum (in C1CCOC1) is 580 nm; the emission maximum (in CC#N) came to 602 nm; the emission maximum (in CCCCCC) is reported as 553 nm; the emission maximum (in CN(C)C=O) is 603 nm; the emission maximum (in Cc1ccccc1) is 573 nm; the emission maximum (in ClC(Cl)Cl) is recorded as 589 nm.

Take `CC1(C)CC(=O)c2c(F)c(F)c(F)c(F)c2N1`: the emission maximum runs as follows: (in CC#N) 449 nm; (in CCO) 479 nm.
